Data as given in PubChem BioAssay AID1259407 (Chemical Carcinogenesis Research Information System (CCRIS), 2018).
Calls of active or inactive are those of the source. The rule behind the calls is not given here.

Test system: CCRIS mutagenicity, Ames/micronucleus/aberration tests
Experiment: CCRIS mutagenicity studies
Conditions: Test System: AMES SALMONELLA TYPHIMURIUM
[1] = Strain/Indicator: TA100, Metabolic Activation: NONE, Method: STANDARD PLATE
[2] = Strain/Indicator: TA98, Metabolic Activation: NONE, Method: PREINCUBATION
[3] = Strain/Indicator: TA100, Metabolic Activation: NONE, Method: PREINCUBATION
[4] = Strain/Indicator: TA1535, Metabolic Activation: NONE, Method: PREINCUBATION
[5] = Strain/Indicator: TA1537, Metabolic Activation: NONE, Method: PREINCUBATION

CCOP(=O)(OCC)O/C(=C/Br)c1ccc(Cl)cc1Cl
mutagenic call (Strain/Indicator: TA98, Metabolic Activation: NONE, Method: STANDARD PLATE): inactive; negative | mutagenic call (Strain/Indicator: TA98, Metabolic Activation: RAT, LIVER, S-9, AROCLOR 1254, Method: STANDARD PLATE): inactive; negative | mutagenic call [1]: inactive; negative | mutagenic call (Strain/Indicator: TA100, Metabolic Activation: RAT, LIVER, S-9, AROCLOR 1254, Method: STANDARD PLATE): inactive; negative | mutagenic call (Strain/Indicator: TA1535, Metabolic Activation: NONE, Method: STANDARD PLATE): inactive; negative | mutagenic call (Strain/Indicator: TA1535, Metabolic Activation: RAT, LIVER, S-9, AROCLOR 1254, Method: STANDARD PLATE): inactive; negative | mutagenic call (Strain/Indicator: TA1537, Metabolic Activation: NONE, Method: STANDARD PLATE): inactive; negative | mutagenic call (Strain/Indicator: TA1537, Metabolic Activation: RAT, LIVER, S-9, AROCLOR 1254, Method: STANDARD PLATE): inactive; negative | mutagenic call (Strain/Indicator: TA1538, Metabolic Activation: NONE, Method: STANDARD PLATE): inactive; negative | mutagenic call (Strain/Indicator: TA1538, Metabolic Activation: RAT, LIVER, S-9, AROCLOR 1254, Method: STANDARD PLATE): inactive; negative

CC(C)Nc1ccccc1
mutagenic call (Strain/Indicator: TA98, Metabolic Activation: HAMSTER, LIVER, S-9, AROCLOR 1254 (5 OR 30%), Method: PREINCUBATION): inactive; negative | mutagenic call [2]: inactive; negative | mutagenic call (Strain/Indicator: TA98, Metabolic Activation: RAT, LIVER, S-9, AROCLOR 1254 (10%), Method: PREINCUBATION): inactive; negative | mutagenic call (Strain/Indicator: TA100, Metabolic Activation: HAMSTER, LIVER, S-9, AROCLOR 1254 (10%), Method: PREINCUBATION): inactive; negative | mutagenic call [3]: inactive; negative | mutagenic call (Strain/Indicator: TA100, Metabolic Activation: RAT, LIVER, S-9, AROCLOR 1254 (10%), Method: PREINCUBATION): inactive; negative | mutagenic call (Strain/Indicator: TA1535, Metabolic Activation: HAMSTER, LIVER, S-9, AROCLOR 1254 (10%), Method: PREINCUBATION): inactive; negative | mutagenic call [4]: inactive; negative | mutagenic call (Strain/Indicator: TA1535, Metabolic Activation: RAT, LIVER, S-9, AROCLOR 1254 (10%), Method: PREINCUBATION): inactive; negative | mutagenic call (Strain/Indicator: TA1537, Metabolic Activation: HAMSTER, LIVER, S-9, AROCLOR 1254 (10%), Method: PREINCUBATION): inactive; negative | mutagenic call [5]: inactive; negative | mutagenic call (Strain/Indicator: TA1537, Metabolic Activation: RAT, LIVER, S-9, AROCLOR 1254 (10%), Method: PREINCUBATION): inactive; negative

CCCCCCCCCc1ccc(OP(=O)(Oc2ccccc2)Oc2ccccc2)cc1
mutagenic call (Strain/Indicator: TA97, Metabolic Activation: HAMSTER, LIVER, S-9, AROCLOR 1254 (5, 10 OR 30%), Method: PREINCUBATION): inactive; negative | mutagenic call (Strain/Indicator: TA97, Metabolic Activation: RAT, LIVER, S-9, AROCLOR 1254 (10%), Method: PREINCUBATION): inactive; negative | mutagenic call (Strain/Indicator: TA97, Metabolic Activation: RAT, LIVER, S-9, AROCLOR 1254 (30%), Method: PREINCUBATION): inactive; negative | mutagenic call (Strain/Indicator: TA98, Metabolic Activation: HAMSTER, LIVER, S-9, AROCLOR 1254 (10 OR 30%), Method: PREINCUBATION): inactive; negative | mutagenic call [2]: inactive; negative | mutagenic call (Strain/Indicator: TA98, Metabolic Activation: RAT, LIVER, S-9, AROCLOR 1254 (10 OR 30%), Method: PREINCUBATION): inactive; negative | mutagenic call (Strain/Indicator: TA100, Metabolic Activation: HAMSTER, LIVER, S-9, AROCLOR 1254 (10 OR 30%), Method: PREINCUBATION): inactive; negative | mutagenic call [3]: inactive; negative | mutagenic call (Strain/Indicator: TA100, Metabolic Activation: RAT, LIVER, S-9, AROCLOR 1254 (10 OR 30%), Method: PREINCUBATION): inactive; negative | mutagenic call (Strain/Indicator: TA1535, Metabolic Activation: HAMSTER, LIVER, S-9, AROCLOR 1254 (10 OR 30%), Method: PREINCUBATION): inactive; negative | mutagenic call [4]: inactive; negative | mutagenic call (Strain/Indicator: TA1535, Metabolic Activation: RAT, LIVER, S-9, AROCLOR 1254 (10 OR 30%), Method: PREINCUBATION): inactive; negative | mutagenic call (Strain/Indicator: TA1537, Metabolic Activation: HAMSTER, LIVER, S-9, AROCLOR 1254 (5, 10 OR 30%), Method: PREINCUBATION): inactive; negative | mutagenic call [5]: inactive; negative | mutagenic call (Strain/Indicator: TA1537, Metabolic Activation: RAT, LIVER, S-9, AROCLOR 1254 (5, 10 OR 30%), Method: PREINCUBATION): inactive; negative

O=C1OCC(C(Br)Br)=C1Cl
mutagenic call [1]: active; positive
